Results taken from patent publication US11040981B2, “Pyrrolotriazine compounds and methods of inhibiting TAM kinases” (Syros Pharmaceuticals, Inc., priority 2017, dated 2021).

Experiments:
AXL = biological target: T1, AXL (Homo sapiens, UniProt P30530); experiment: TR-FRET kinase activity assay, AXL; format: biochemical; settings: ATP at Km, 60 minutes
T1 sequence (P30530 26-894): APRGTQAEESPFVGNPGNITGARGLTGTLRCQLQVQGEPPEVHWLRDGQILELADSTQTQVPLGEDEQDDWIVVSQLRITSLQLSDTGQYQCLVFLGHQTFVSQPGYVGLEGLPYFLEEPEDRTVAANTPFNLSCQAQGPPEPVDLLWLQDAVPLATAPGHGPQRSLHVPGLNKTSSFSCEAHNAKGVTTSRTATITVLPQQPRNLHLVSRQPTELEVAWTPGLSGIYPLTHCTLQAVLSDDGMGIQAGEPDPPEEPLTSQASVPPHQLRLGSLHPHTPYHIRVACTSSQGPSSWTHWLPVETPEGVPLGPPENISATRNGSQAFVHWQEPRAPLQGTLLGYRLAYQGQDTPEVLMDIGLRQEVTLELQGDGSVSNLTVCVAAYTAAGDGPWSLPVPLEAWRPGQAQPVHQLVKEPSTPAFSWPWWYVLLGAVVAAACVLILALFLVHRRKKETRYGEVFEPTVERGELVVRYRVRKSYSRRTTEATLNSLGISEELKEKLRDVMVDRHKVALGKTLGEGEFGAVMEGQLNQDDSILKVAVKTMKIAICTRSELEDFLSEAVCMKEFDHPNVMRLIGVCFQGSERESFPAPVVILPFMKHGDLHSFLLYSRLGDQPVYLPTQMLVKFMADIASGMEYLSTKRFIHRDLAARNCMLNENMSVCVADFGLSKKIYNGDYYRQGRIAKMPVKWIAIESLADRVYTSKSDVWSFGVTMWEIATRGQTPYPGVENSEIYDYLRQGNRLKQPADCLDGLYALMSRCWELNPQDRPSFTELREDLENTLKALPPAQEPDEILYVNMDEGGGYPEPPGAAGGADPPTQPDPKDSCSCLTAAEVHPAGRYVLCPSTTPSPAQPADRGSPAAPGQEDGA
Method in brief: (§1)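 Enzyme, fluorescent peptide substrate and compound were mixed, and the reaction was started with ATP at each kinase's Km, in 50 mM HEPES pH 7.5, 10 mM MgCl2, 1 mM EGTA, 0.01% Brij 35, 1 mM DTT at RT. After 60 minutes EDTA quench, Eu-labelled phospho-specific antibody was added for 30 minutes, and IC50 was derived from TR-FRET signal loss.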

MERTK = biological target: T2, MERTK (Homo sapiens, UniProt Q12866); experiment: TR-FRET kinase activity assay, MERTK; format: biochemical; settings: for IC50: TR-FRET activity assay, ATP at Km, 60 minutes, read-out: Mer IC50
T2 sequence (Q12866 21-999): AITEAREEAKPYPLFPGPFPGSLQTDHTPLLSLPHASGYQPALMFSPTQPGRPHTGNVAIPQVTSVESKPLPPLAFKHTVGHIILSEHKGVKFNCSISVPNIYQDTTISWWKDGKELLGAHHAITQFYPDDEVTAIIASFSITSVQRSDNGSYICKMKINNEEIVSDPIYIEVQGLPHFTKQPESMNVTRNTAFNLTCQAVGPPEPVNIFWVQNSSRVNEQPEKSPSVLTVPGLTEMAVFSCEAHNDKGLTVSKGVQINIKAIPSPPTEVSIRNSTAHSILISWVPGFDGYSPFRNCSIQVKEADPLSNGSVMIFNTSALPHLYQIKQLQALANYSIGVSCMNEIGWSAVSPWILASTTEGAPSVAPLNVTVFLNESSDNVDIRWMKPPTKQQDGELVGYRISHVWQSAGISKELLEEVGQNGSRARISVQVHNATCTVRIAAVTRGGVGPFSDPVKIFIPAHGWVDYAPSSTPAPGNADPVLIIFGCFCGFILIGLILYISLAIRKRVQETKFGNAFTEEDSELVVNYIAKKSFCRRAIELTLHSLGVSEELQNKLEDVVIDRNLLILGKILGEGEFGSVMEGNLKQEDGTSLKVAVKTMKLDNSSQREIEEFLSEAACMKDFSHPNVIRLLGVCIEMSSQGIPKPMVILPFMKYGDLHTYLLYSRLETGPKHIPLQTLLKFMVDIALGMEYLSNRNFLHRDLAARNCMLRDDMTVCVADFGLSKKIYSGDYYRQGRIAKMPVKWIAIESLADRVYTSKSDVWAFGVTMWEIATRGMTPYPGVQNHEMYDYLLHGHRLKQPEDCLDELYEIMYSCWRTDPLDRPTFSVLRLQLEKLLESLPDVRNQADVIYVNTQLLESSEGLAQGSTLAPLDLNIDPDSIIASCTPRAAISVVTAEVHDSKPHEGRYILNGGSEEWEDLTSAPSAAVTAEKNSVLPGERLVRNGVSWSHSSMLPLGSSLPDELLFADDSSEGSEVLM
Method in brief: as §1

[1] = ratio calculated as FLT3 IC50/Mer IC50
[2] = ratio of Mer to FLT3: FLT3 IC50/Mer IC50

Compound | IC50 (AXL) [nM] | IC50 (MERTK) [nM] | FLT3/Mer ratio (FLT3 IC50/Mer IC50) (MERTK; [1]) | FLT3/Mer ratio (FLT3 IC50/Mer IC50) (MERTK; [2])
C[C@@H](CC(F)(F)F)Nc1ncc2c(C3=CCNCC3)cc([C@H]3CC[C@H](O)CC3)n2n1 [Compound 442] | ≤ 100 | ≤ 100 | ++ (“++” represents a ratio of between 10 and 100) | –
COC[C@H](C)Nc1ncc2c(-c3cnn(C4COC4)c3)cc(-c3ccc(O)nc3)n2n1 [Compound 501] | 100 to 1000 | ≤ 100 | ++ (“++” represents a ratio of between 10 and 100) | –
COC[C@H](C)Nc1ncc2c(C3=C[C@H]4CC[C@@H](C3)N4C(=O)N3CCOCC3)cc([C@H]3CC[C@H](O)CC3)n2n1 [Compound 469] | ≤ 100 | ≤ 100 | +++ (“+++” represents a ratio of >100) | –
CC[C@H](C)Nc1ncc2c(-c3ccc(CN4CCN(C)CC4)cc3)cc([C@H]3CC[C@](C)(O)CC3)n2n1 (relative stereo) [Compound 132, (trans)-4-(2-((S)-sec-butylamino)-5-(4-((4-methylpiperazin-1-yl)methyl)phenyl)pyrrolo[2,1-f][1,2,4]triazin-7-yl)-1-methylcyclohexanol] | ≤ 100 | ≤ 100 | – | ++ (“++” represents a ratio of between 10 and 100)
COC[C@H](C)Nc1ncc2c(-c3cnn(C[C@@H]4CC(=O)N(C)C4)c3)cc([C@H]3CC[C@H](O)CC3)n2n1 [Compound 473] | ≤ 100 | ≤ 100 | +++ (“+++” represents a ratio of >100) | –
COC[C@H](C)Nc1ncc2c(-c3ccnc(NC4CCOCC4)c3)cc([C@H]3CC[C@H](O)CC3)n2n1 [Compound 431] | ≤ 100 | ≤ 100 | +++ (“+++” represents a ratio of >100) | –
C[C@@H](CC(F)(F)F)Nc1ncc2c(C3=C[C@@H]4CC[C@H](C3)N4)cc([C@H]3CC[C@H](O)CC3)n2n1 [Compound 499] | ≤ 100 | ≤ 100 | +++ (“+++” represents a ratio of >100) | –
COC[C@H](C)Nc1ncc2c(C3=C[C@@H]4CC[C@H](C3)N4)cc([C@H]3CC[C@H](O)CC3)n2n1 [Compound 461] | ≤ 100 | ≤ 100 | +++ (“+++” represents a ratio of >100) | –
COC[C@H](C)Nc1ncc2c(C3=C[C@@H]4CC[C@H](C3)N4C(=O)N3CCOCC3)cc([C@H]3CC[C@H](O)CC3)n2n1 [Compound 463] | ≤ 100 | ≤ 100 | +++ (“+++” represents a ratio of >100) | –
C[C@@H](COC(F)F)Nc1ncc2c(-c3cnn(CCS(C)(=O)=O)c3)cc([C@H]3CC[C@H](O)CC3)n2n1 [Compound 436] | ≤ 100 | ≤ 100 | +++ (“+++” represents a ratio of >100) | –
COC[C@H](C)Nc1ncc2c(C3=C[C@@H]4CC[C@H](C3)N4C(C)=O)cc([C@H]3CC[C@H](O)CC3)n2n1 [Compound 462] | ≤ 100 | ≤ 100 | +++ (“+++” represents a ratio of >100) | –
COC[C@H](C)Nc1ncc2c(-c3cnn(C4COC4)c3)cc([C@H]3CC[C@@](C)(O)CC3)n2n1 (single isomer, unassigned) [Compound 453] | ≤ 100 | ≤ 100 | +++ (“+++” represents a ratio of >100) | –

Second part, the compound after the results:

IC50 (AXL) [nM] | IC50 (MERTK) [nM] | FLT3/Mer ratio (FLT3 IC50/Mer IC50) (MERTK; [1]) | FLT3/Mer ratio (FLT3 IC50/Mer IC50) (MERTK; [2]) | Compound
≤ 100 | ≤ 100 | +++ (“+++” represents a ratio of >100) | – | COC[C@H](C)Nc1ncc2c(-c3cnn(C(C)(C)c4nnc(C)o4)c3)cc([C@H]3CC[C@H](O)CC3)n2n1 [Compound 440]
100 to 1000 | ≤ 100 | +++ (“+++” represents a ratio of >100) | – | COC[C@H](C)Nc1ncc2c(-c3ccnc(N4CCN(S(=O)(=O)C(F)(F)F)CC4)c3)cc([C@H]3CC[C@H](O)CC3)n2n1 [Compound 487]
≤ 100 | ≤ 100 | +++ (“+++” represents a ratio of >100) | – | COC[C@H](C)Nc1ncc2c(-c3ccnc(N4CCN(C(=O)OC5COC5)CC4)c3)cc([C@H]3CC[C@H](O)CC3)n2n1 [Compound 504]
100 to 1000 | ≤ 100 | +++ (“+++” represents a ratio of >100) | – | COC[C@H](C)Nc1ncc2c([C@H]3CC[C@@H](C(=O)N4CCOCC4)CC3)cc([C@H]3CC[C@H](O)CC3)n2n1 [Compound 484]
≤ 100 | ≤ 100 | +++ (“+++” represents a ratio of >100) | – | COC[C@H](C)Nc1ncc2c(-c3ccnc(N4C[C@H]5CC[C@@H](C4)O5)c3)cc([C@H]3CC[C@H](O)CC3)n2n1 [Compound 445]
≤ 100 | ≤ 100 | +++ (“+++” represents a ratio of >100) | – | COC[C@H](C)Nc1ncc2c(-c3ccnc(N4CCN(C5COC5)CC4)c3)cc([C@H]3CC[C@H](O)CC3)n2n1 [Compound 486]
≤ 100 | ≤ 100 | – | +++ (“+++” represents a ratio of >100) | COC[C@H](C)Nc1ncc2c(-c3ccc(-c4nn[nH]n4)cc3)cc([C@H]3CC[C@H](O)CC3)n2n1 [Compound 134]
≤ 100 | ≤ 100 | +++ (“+++” represents a ratio of >100) | – | COC[C@H](C)Nc1ncc2c(-c3cnn(C(C)(C)C(=O)C4CCc5sc(C)nc5C4)c3)cc([C@H]3CC[C@H](O)CC3)n2n1 (stereo partly drawn) [Compound 496]
≤ 100 | ≤ 100 | +++ (“+++” represents a ratio of >100) | – | COC[C@H](C)Nc1ncc2c(-c3ccnc(N4CCC5(CC4)COC5)c3)cc([C@H]3CC[C@H](O)CC3)n2n1 [Compound 427]
≤ 100 | ≤ 100 | +++ (“+++” represents a ratio of >100) | – | COC[C@H](C)Nc1ncc2c(-c3csc(C(=O)N4CCOCC4)c3)cc([C@H]3CC[C@H](O)CC3)n2n1 [Compound 444]
≤ 100 | ≤ 100 | +++ (“+++” represents a ratio of >100) | – | C[C@@H](CC(F)(F)F)Nc1ncc2c([C@H]3CC[C@@H](C(=O)N4CCOCC4)CC3)cc([C@H]3CC[C@H](O)CC3)n2n1 [Compound 446]
≤ 100 | ≤ 100 | – | +++ (“+++” represents a ratio of >100) | CC[C@H](C)Nc1ncc2c(-c3ccc(CN4CCN(C)CC4)cc3)cc(C3CCC(C)(O)CC3)n2n1 (stereo in doubt) [Compound 131, (cis)-4-(2-((S)-sec-butylamino)-5-(4-((4-methylpiperazin-1-yl)methyl)phenyl)pyrrolo[2,1-f][1,2,4]triazin-7-yl)-1-methylcyclohexanol]
≤ 100 | ≤ 100 | +++ (“+++” represents a ratio of >100) | – | COC[C@H](C)Nc1ncc2c(-c3cnn(C(C)(C)CN4CCOCC4)c3)cc([C@H]3CC[C@H](O)CC3)n2n1 [Compound 459]
